Laboratory results published in ChEMBL document CHEMBL1201862, “PubChem BioAssay data set” (2004).
One block for each compound: values may come before it. Calls of active or inactive are those of the source.

What was measured:
[1] = biological target: 5-hydroxytryptamine receptor 5A (Homo sapiens, UniProt P47898); experiment: Counterscreen for agonists of OPRM1-OPRD1 heterodimerization: luminescence-based cell-based high throughput dose response assay to identify agonists of 5-hydroxytryptamine (serotonin) 5A receptor (HTR5A). [Related pubchem assays (depositor defined):AID504326, AID504355, AID504692, AID504904, AID504905]; assay type: functional
Mu-type opioid receptor = Mu-type opioid receptor (Homo sapiens, UniProt P35372); experiment: (§1) Counterscreen for agonists of heterodimerization of the mu 1 (OPRM1) and delta 1 (OPRD1) opioid receptors: Luminescence-based cell-based high throughput dose response assay to identify agonists of OPRM1 homodimerization.; assay type: functional
[2] = biological target: Delta-type opioid receptor (Homo sapiens, UniProt P41143); experiment: as §1, with “of OPRD1” for “of OPRM1”, “homodimerization. [Related pubchem assays (depositor defined):AID504326, AID504355, AID504692, AID504904, AID504905]” for “homodimerization.”; assay type: functional
[3] = biological target: T1, Short transient receptor potential channel 4 (Mus musculus, UniProt Q9QUQ5); experiment: calcium entry via TRPC4 opening agents – cell-based, HEK293 TRPC4/mu-opioid, Fluo-4 calcium, dose response (AID 434937); assay type: functional
T1 sequence (Q9QUQ5 whole entry): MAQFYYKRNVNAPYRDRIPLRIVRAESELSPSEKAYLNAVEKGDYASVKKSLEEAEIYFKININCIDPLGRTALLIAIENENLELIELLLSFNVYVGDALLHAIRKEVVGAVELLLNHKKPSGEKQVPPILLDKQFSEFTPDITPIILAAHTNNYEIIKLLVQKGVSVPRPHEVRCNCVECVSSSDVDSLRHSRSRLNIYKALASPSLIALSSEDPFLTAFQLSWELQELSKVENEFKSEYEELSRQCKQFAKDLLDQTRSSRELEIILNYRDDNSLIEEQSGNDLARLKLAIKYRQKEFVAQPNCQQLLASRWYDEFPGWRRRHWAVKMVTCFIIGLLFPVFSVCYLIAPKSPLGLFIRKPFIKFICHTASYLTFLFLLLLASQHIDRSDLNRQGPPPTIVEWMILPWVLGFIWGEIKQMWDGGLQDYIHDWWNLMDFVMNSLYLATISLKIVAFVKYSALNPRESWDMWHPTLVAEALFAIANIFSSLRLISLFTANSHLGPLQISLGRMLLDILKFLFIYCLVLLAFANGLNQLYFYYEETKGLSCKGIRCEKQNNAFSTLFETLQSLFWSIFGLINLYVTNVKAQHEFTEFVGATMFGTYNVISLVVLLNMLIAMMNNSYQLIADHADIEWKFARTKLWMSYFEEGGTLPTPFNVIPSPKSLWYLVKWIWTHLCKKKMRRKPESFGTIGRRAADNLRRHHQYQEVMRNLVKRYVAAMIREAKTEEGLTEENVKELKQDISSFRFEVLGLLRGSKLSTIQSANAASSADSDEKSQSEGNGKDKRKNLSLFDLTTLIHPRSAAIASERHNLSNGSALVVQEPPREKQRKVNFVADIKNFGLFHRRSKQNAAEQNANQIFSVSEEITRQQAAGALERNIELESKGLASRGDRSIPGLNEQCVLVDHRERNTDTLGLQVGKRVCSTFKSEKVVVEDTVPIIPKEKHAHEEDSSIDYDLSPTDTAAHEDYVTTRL

HEK293 [4] = experiment: cells; assay type: functional, cell-based; details: Homo sapiens
[5] = biological target: Luciferin 4-monooxygenase (Photuris pensylvanica, UniProt Q27757); experiment: inhibition of Cell Titer Glo luciferase signal – biochemical, luminescence, cherry-picks, counter-screen for HSF-1 reporter inhibitor project, dose response (AID 588847)
HEK293 [6] = experiment: cells; assay type: functional, cell-based; details: Homo sapiens; remark: listed apart in the source
[7] = biological target: T2, Heat shock factor protein 1 (Mus musculus, UniProt P38532); experiment: decrease of HSF1-responsive luciferase luminescence – cell-based, NIH3T3, dose retest, confirmation (AID 2382); assay type: functional;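 note: NIH3T3 fibroblasts with HSF1-driven luciferase reporter stressed by proteasome inhibitor MG132; luminescence from HSF1-driven luciferase expression after 8 hours of MG132 stress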
T2 sequence (P38532 whole entry): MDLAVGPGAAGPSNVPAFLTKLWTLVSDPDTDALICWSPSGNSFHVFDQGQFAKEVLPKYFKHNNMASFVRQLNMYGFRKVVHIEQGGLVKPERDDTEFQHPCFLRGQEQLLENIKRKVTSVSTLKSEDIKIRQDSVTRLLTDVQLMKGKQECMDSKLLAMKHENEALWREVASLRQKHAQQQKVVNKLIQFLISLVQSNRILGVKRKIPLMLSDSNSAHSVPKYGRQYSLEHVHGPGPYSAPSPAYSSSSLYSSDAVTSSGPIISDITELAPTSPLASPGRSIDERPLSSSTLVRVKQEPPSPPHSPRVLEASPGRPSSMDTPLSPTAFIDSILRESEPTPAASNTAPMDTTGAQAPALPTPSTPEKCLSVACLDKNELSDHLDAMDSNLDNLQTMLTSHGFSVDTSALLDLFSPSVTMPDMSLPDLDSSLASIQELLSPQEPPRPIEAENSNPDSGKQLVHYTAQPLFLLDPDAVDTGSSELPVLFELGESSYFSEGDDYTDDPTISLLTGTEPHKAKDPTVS

[8] = blockers of bursicon-stimulated LGR2 cAMP reporter – cell-based, HEK293, CRE-luciferase reporter, cherry pick, set 2, dose response (AID 743343); assay type: functional;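 note: transfected cells were stimulated with diluted bursicon conditioned medium after compound addition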
HEK293 [9] = experiment: inhibition of NOD1-driven NF-kB reporter – cell-based, luminescence, uHTS, primary screen (AID 1578); assay type: functional; details: Homo sapiens
[10] = blockade of melanocortin 4 receptor signaling – cell-based, plate reader, cherry pick, counter-screen for LGR2 antagonist project, dose response (AID 743444); assay type: functional;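 note: transfected HEK 293 cells stimulated with alpha-MSH peptide; potency of inhibitors of the alpha-MSH evoked signal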
[11] = biological target: Nucleotide-binding oligomerization domain-containing protein 2 (Homo sapiens, UniProt Q9HC29); experiment: inhibition of NOD2-driven NF-kB reporter – cell-based, luminescence, uHTS, HEK293 (AID 1566); assay type: functional
[12] = viability loss in HEK293 cells – cell-based, plate reader, cherry-picked samples, cytotoxicity control, dose response (AID 743446); assay type: functional
HEK293 [13] = experiment: NOD2 signaling inhibitors in MDP-stimulated cells, cell-based, uHTS, luminescence (AID 2001); assay type: functional; details: Homo sapiens
HEK293 [14] = experiment: cells; assay type: functional, cell-based; details: Homo sapiens; remark: listed apart in the source
Escherichia coli [15] = experiment: microbe, parasite or virus in culture
Escherichia coli [16] = experiment: microbe, parasite or virus in culture; remark: listed apart in the source
[17] = Luminescence Cell-Based Dose Response Follow up to Identify Inhibitors of Platelet Dense Granule Release. [Related pubchem assays (depositor defined):AID1663, AID1678, AID1889, AID2519]; assay type: functional
[18] = SFLLRN-induced P-Selectin Platelet Surface Expression Measured in Cell-Based System Using Flow Cytometry - 2016-03_Inhibitor_Dose_DryPowder_Activity_Set3. [Related pubchem assays (depositor defined):AID1678]; assay type: functional

Chain of Delta-type opioid receptor (P41143 whole entry): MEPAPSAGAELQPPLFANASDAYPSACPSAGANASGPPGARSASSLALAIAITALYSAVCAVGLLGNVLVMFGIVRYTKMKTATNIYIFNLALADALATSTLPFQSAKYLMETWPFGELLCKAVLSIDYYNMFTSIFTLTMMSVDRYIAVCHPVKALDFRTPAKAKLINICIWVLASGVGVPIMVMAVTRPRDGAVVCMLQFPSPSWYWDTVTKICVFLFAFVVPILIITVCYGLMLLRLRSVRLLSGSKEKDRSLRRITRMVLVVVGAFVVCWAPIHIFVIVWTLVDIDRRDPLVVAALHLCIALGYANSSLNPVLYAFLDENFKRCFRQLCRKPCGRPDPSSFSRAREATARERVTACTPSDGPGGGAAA
Chain of Luciferin 4-monooxygenase (Q27757 whole entry): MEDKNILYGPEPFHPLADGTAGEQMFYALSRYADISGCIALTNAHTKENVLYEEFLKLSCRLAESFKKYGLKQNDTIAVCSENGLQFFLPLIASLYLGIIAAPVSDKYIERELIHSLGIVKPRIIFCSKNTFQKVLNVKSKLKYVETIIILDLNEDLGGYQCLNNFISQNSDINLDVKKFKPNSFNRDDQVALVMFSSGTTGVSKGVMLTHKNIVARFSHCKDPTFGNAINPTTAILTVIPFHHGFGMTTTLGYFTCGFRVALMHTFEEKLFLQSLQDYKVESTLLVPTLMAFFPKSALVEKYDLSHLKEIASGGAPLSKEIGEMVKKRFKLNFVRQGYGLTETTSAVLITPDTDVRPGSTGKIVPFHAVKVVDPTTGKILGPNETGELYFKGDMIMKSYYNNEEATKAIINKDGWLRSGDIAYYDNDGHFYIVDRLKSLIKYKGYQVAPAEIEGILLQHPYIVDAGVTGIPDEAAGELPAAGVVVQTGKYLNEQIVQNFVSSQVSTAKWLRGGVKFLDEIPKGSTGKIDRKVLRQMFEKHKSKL
Chain of Mu-type opioid receptor (P35372 whole entry): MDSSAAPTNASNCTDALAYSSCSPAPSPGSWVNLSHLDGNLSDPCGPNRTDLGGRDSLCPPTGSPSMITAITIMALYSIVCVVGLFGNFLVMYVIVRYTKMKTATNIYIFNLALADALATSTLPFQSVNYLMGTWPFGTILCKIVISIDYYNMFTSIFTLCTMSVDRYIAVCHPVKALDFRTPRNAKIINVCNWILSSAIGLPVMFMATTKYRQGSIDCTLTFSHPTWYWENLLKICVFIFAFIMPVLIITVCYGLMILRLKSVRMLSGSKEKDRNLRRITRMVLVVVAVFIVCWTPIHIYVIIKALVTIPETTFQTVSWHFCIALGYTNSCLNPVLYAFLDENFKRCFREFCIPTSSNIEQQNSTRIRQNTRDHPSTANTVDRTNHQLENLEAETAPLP
Chain of 5-hydroxytryptamine receptor 5A (P47898 whole entry): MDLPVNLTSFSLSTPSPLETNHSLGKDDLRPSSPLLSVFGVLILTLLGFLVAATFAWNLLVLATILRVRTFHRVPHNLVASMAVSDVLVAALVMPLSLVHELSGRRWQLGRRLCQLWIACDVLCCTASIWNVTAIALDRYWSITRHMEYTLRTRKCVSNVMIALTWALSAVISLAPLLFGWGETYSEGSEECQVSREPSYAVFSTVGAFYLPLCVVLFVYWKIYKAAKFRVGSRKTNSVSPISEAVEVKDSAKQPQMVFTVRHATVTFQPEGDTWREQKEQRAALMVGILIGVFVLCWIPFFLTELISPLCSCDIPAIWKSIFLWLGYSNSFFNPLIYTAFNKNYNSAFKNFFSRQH
Chain of Nucleotide-binding oligomerization domain-containing protein 2 (Q9HC29 whole entry, the tested form may be a part): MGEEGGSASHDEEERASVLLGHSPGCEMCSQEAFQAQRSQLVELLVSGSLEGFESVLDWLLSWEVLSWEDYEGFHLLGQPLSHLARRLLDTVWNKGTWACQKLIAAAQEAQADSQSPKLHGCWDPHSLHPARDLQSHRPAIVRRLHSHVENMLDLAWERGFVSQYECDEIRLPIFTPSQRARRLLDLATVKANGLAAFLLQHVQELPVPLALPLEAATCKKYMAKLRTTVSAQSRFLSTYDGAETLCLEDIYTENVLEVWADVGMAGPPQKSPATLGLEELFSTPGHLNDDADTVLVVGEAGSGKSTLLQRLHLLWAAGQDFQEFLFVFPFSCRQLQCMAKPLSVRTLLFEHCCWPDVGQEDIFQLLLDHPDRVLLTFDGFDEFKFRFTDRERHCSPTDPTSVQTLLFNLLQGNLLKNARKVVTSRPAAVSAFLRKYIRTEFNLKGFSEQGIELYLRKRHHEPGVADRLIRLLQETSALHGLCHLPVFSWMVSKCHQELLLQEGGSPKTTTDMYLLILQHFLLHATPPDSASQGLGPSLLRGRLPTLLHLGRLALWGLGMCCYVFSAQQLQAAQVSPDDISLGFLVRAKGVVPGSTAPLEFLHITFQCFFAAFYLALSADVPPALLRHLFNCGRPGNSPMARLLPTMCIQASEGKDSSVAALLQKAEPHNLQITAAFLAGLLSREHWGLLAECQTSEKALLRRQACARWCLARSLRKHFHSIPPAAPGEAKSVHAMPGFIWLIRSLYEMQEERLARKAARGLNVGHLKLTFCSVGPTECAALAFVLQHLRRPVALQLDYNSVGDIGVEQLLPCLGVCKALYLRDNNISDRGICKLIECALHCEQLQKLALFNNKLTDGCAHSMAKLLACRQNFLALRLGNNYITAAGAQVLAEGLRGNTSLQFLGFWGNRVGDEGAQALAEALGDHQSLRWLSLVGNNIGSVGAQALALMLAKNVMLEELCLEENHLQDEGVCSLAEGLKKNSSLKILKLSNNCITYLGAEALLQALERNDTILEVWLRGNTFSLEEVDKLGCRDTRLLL

- EC50 [1]: > 92.5 µM (inactive)
- EC50 (Mu-type opioid receptor): > 92.5 µM (inactive)
- EC50 [2]: > 92.5 µM (inactive)
- EC50 [3]: 1.06 µM (active)
Compound: COc1ccc(C(CNC(=O)CCOc2ccccc2)N(C)C)cc1 (centres undefined)

Compound: Cc1cccc(-n2ncc3c(N(C)C4CCCCC4)ncnc32)c1
- IC50 (HEK293 [4]): > 20 µM (inactive)
- AC50 [5]: 6.99 µM (active)
- IC50 (HEK293 [6]): 0.783 µM (active)
- EC50 [7]: < 0.16 µM (active)
- AC50 [8]: 0.121 µM (active)
- EC50 (HEK293 [9]): 9.93 µM (active)
- AC50 [10]: 0.0758 µM (active)
- EC50 [11]: < 0.31 µM (inactive)
- AC50 [12]: 40.2 µM (active)
- IC50 (HEK293 [13]): 6.81 µM (active)
- IC50 (HEK293 [14]): > 20 µM (inactive)

Compound: COc1ccc(C)cc1S(=O)(=O)N(C)CC(=O)N1CCC(C(N)=O)CC1
- AC50 (Escherichia coli [15]): > 380 µM (inactive)
- AC50 (Escherichia coli [16]): 25.7 µM (active)

Compound: CC(=O)Nc1ccc(NC(=O)c2ccccc2Br)cc1
- EC50 [17]: 8.7 µM (active)
- AC50 [18]: 6.02 µM (active)
